Laboratory results taken from article PMC12040169 (PLOS Biology, 2025).

Experiment: in vitro
Details: human, hela cells

Row | Structure (SMILES) | viability at 28.5 h, 10 µM
1 | O=C(CC(c1ccccc1)c1c(O)c2ccccc2oc1=O)c1ccc(-c2ccc(Br)cc2)cc1 (centres unmarked) [CBK260877] | 91.8%

Same assay, conditions: human, hela cells, % viability

Row | Structure (SMILES) | viability at 28.5 h, 10 µM
2 | CONc1nc(/N=C/N(C)C)nc2c1ncn2C1CC(O)C(CO)O1 (centres unmarked) [CBK201335] | 92.7%
3 | COCC1OC(n2cc(C)c(=O)[nH]c2=O)CC1O (centres unmarked) [CBK201338] | 94.5%
4 | Nc1ncnc2c1ncn2[C@H]1C[C@@H](O)[C@@H](CO)O1 [CBK201382] | 94.9%
5 | Cc1nc(COc2ccccc2)sc1C(=O)N1CCC(C(N)=O)CC1 [CBK202603] | 103%
6 | O=C(O)CN1C(=O)[C@@H]2Cc3ccccc3CN2C1=O [CBK202728] | 82.8%
7 | CC(=O)Nc1sc2c(c1-c1nc3ccccc3s1)CCN(C(C)C)C2 [CBK211288] | 3.98%
8 | COCCNC(=O)C1CCN(c2nc3c(-c4ccccc4F)csc3c(=O)[nH]2)CC1 [CBK215434] | 92.6%
9 | CN(C)CCNC(=O)C1CCN(c2nc3c(-c4ccccc4F)csc3c(=O)[nH]2)CC1 [CBK215437] | 85.1%
10 | COc1ccc(CNC(=O)C2CCCN(c3nc4c(-c5ccccc5)csc4c(=O)[nH]3)C2)cc1 (centres unmarked) [CBK215464] | 95.2%
11 | NC(=O)CNC(=O)C1CCCN(c2nc3c(-c4ccccc4)csc3c(=O)[nH]2)C1 (centres unmarked) [CBK215487] | 112%
12 | O=C(NCc1cccnc1)C1CCCN(c2nc3c(-c4ccccc4)csc3c(=O)[nH]2)C1 (centres unmarked) [CBK215492] | 112%
13 | O=C(NCCc1cccnc1)C1CCCN(c2nc3c(-c4ccccc4)csc3c(=O)[nH]2)C1 (centres unmarked) [CBK215495] | 88.7%
14 | COc1ccc(CNC(=O)C2CCCN(c3nc4c(-c5ccc(C)cc5)csc4c(=O)[nH]3)C2)cc1 (centres unmarked) [CBK215530] | 112%
15 | Cc1cccc(-c2csc3c(=O)[nH]c(N4CCC(C(=O)NCc5ccncc5)CC4)nc23)c1 [CBK215625] | 106%
16 | COCCCNC(=O)C1CCN(c2nc3c(-c4cccc(C)c4)csc3c(=O)[nH]2)CC1 [CBK215630] | 96.6%
17 | Cc1cccc(-c2csc3c(=O)[nH]c(N4CCC(C(=O)NCCN(C)C)CC4)nc23)c1 [CBK215633] | 95.8%
18 | Cc1cccc(-c2csc3c(=O)[nH]c(N4CCC(C(=O)NCCN5CCOCC5)CC4)nc23)c1 [CBK215640] | 105%
19 | Cc1cccc(-c2csc3c(=O)[nH]c(N4CCC(C(=O)N5CCOCC5)CC4)nc23)c1 [CBK215644] | 89.7%
20 | CCCC(N)CCCCCC(=O)O (centres unmarked) [CBK217078] | 91.8%
21 | CC(C)CC(NS(=O)(=O)c1cccc2nsnc12)C(=O)O (centres unmarked) [CBK217288] | 94.2%
22 | Cc1ccc(S(=O)(=O)NC(Cc2ccccc2)C(=O)O)cc1 (centres unmarked) [CBK217645] | 102%
23 | Cc1ccc(OCC(=O)NC(Cc2ccccc2)C(=O)O)cc1 (centres unmarked) [CBK217681] | 102%

Row | Structure (SMILES) | viability at 28.5 h, 10 µM
24 | O=C(NC(Cc1c[nH]c2ccccc12)C(=O)O)c1ccco1 (centres unmarked) [CBK217706] | 92.5%
25 | N#CC1=C(N)n2c(s/c(=C\c3ccc(O)cc3)c2=O)=C(C#N)C1c1ccc(O)cc1 (centres unmarked) [CBK217780] | 103%
26 | O=C(O)C(Cc1cnc[nH]1)N1C(=O)c2ccccc2C1=O (centres unmarked) [CBK217815] | 110%
27 | O=C(O)CSc1n[nH]c(=O)[nH]c1=O [CBK217819] | 94.8%
28 | O=c1c(Oc2ccccc2Br)c(C(F)(F)F)oc2c(CN3CCCC3)c(O)ccc12 [CBK217827] | 96%
29 | O=c1c2ccccc2nc(CSc2[nH]cnc3ncnc2-3)n1-c1ccc(Cl)c(Cl)c1 [CBK217854] | 93.9%
30 | O=C(O)C1CCCN1S(=O)(=O)c1ccc(Cl)c(Cl)c1 (centres unmarked) [CBK217856] | 99.1%
31 | COC(=O)CCNc1n[nH]c(=O)[nH]c1=O [CBK217927] | 90.4%
32 | CC1(C(=O)O)NC(c2ccccc2O)C2C(=O)N(Cc3ccccc3)C(=O)C21 (centres unmarked) [CBK218007] | 90.6%
33 | CC1(C)CC(CCNC(=O)CCC(=O)O)(c2ccccc2)CCO1 (centres unmarked) [CBK218198] | 85.7%
34 | Cn1c(=O)c2c(nc(N3CCOCC3)n2CCC/N=C2\CCCCN2)n(C)c1=O [CBK218356] | 105%
35 | CSCCC(C(=O)O)N1C(=O)c2ccccc2C1=O (centres unmarked) [CBK218448] | 102%
36 | O=[N+]([O-])c1ccc(CN2CCN(Cc3c[nH]c4ccccc34)CC2)cc1 [CBK218620] | 92.3%
37 | O=[N+]([O-])c1cc(CN2CCN(c3ccccc3)CC2)c(O)c2ncccc12 [CBK218696] | 99.6%
38 | O=c1oc2ccccc2c(NCCN2CCCCC2)c1[N+](=O)[O-] [CBK218805] | 92%
39 | O=c1[nH]cnc2c1nc(S)n2C1OC(CO)C(O)C1O (centres unmarked) [CBK218834] | 96.4%
40 | Cc1cc(=O)n2c3c(cc(S(=O)(=O)NC4CC4)cc13)CC2 [CBK218959] | 95.9%
41 | N#CC1=C(N)Oc2cc(O)ccc2C1c1ccccc1 (centres unmarked) [CBK219303] | 90.3%
42 | O=c1c(Cc2ccccc2)c(O)c2ccccc2n1Cc1ccccc1 [CBK219368] | 85.8%
43 | CCC(=O)Nc1ccccc1C(=O)C(=O)O [CBK219398] | 120%
44 | CCCCc1c(O)c2ccccc2n(Cc2ccccc2)c1=O [CBK219416] | 106%
